# “And” between values parts separate entries of the source, which are not always exact repeats. Identical values can stand only once. Peptide text beside a SMILES is read from it.
# Excerpt: All subjects who met eligibility criteria were confined to the clinical research unit from […] through Day 3. At admission, physical examination, vital signs, 12 lead ECG and weight were obtained, medical and medication history were updated if necessary, safety blood tests (hematology and chemistry), urinalysis, urine drug screen and an alcohol breath test were repeated and a urine pregnancy test was done for women of childbearing potential.
# At each dose level, there were 2 sentinel subjects, (1 active, 1 placebo), who were dosed at least 48 hours in advance of the other subjects in their respective group. Following review of safety data, including physical examination, vital signs, and review of adverse events from the first 2 subjects, enrolment in the cohort continued.
# A 12-lead ECG was performed on Day 1, within 60 minutes of infusion start (in triplicate), mid-way through the infusion, at the completion of the infusion, 30 minutes after completion of the infusion and at various timepoints following the end of the infusion.
# Vital signs were recorded within 60 minutes pre-dose, at the mid-point of the infusion and post dose vitals were assessed at completion of the infusion, 0.5, 1, 2, 3, 4, 6, 9, 12, 24 and 48 hours post dose, after at least 3 minutes of rest in supine position.
# Subjects returned to the study center 7 days after dosing, for the termination visit. A full physical examination, vital signs and weight were obtained, concomitant medications were updated if necessary, safety blood specimens (haematology and chemistry, PT and aPTT) and urine were collected for urinalysis and urine drug screening. A serum pregnancy test was done for women of childbearing potential and a 12-lead ECG was performed.
# In this study dose limiting toxicity (DLT) was defined as any drug related ≥Grade 3 AEs occurring despite optimal therapeutic interventions (which included but were not limited to allergic/hypersensitivity reactions, dermatological reactions/infusion site reactions, haematological toxicities such as neutropenia, thrombocytopenia and anaemia and clinical chemistry abnormalities) experienced up to Day 7 (Termination Visit).
# (§1) All subjects who received any amount of study drug were included in the safety analysis (Safety population).
# The study was a double blinded, randomized, placebo-controlled study. The placebo administered was 0.9% sodium chloride.
# On Day 1 (day of dosing), subjects were randomly assigned either peptide IV or Placebo IV. At each dose level, there were 2 sentinel subjects, (1 active, 1 placebo), who were dosed at least 48 hours in advance of the other subjects in their respective group. Following review of safety data, including physical examination, vital signs, and review of adverse events from the first 2 subjects, enrolment in the cohort continued. All subjects who met eligibility criteria were confined to the clinical research unit from Day −2 through Day 3. At admission, physical examination, vital signs, 12 lead ECG and weight were obtained, medical and medication history were updated if necessary, safety blood tests (hematology and chemistry), urinalysis, urine drug screen and an alcohol breath test were repeated and a urine pregnancy test was done for women of childbearing potential.
# as §1
structure (smiles),measurement,setting,value
CC(C)[C@H](NC(=O)[C@H](Cc1c[nH]c2ccccc12)NC(=O)[C@H](CCCNC(=N)N)NC(=O)[C@H](CCCNC(=N)N)NC(=O)[C@@H](NC(=O)[C@@H](NC(=O)[C@H](CCCNC(=N)N)NC(=O)[C@@H](NC(=O)[C@@H](NC(=O)[C@H](CCCNC(=N)N)NC(=O)[C@H](CCCNC(=N)N)NC(=O)[C@H](Cc1c[nH]c2ccccc12)NC(=O)[C@@H](NC(=O)[C@H](CCCNC(=N)N)NC(=O)[C@H](CCCNC(=N)N)NC(=O)[C@@H](NC(=O)[C@H](CCCNC(=N)N)NC(=O)[C@H](CCCNC(=N)N)NC(=O)[C@@H](NC(=O)[C@H](Cc1c[nH]c2ccccc12)NC(=O)[C@H](CCCNC(=N)N)NC(=O)[C@@H](N)CCCNC(=N)N)C(C)C)C(C)C)C(C)C)C(C)C)C(C)C)C(C)C)C(C)C)C(=O)N[C@@H](CCCNC(=N)N)C(=O)N[C@@H](CCCNC(=N)N)C(N)=O [SEQ ID NO: 1] (H-RRWVRRVRRVWRRVVRVVRRWVRR-NH2),"Related TEAE Co[?], n participants",Pooled SEQ ID NO: 1 (N = 29),0
same,"Related TEAE F[?], n participants",Pooled SEQ ID NO: 1 (N = 29),0
same,"Related TEAE Nervous system disorders, n participants",Pooled SEQ ID NO: 1 (N = 29),0
same,"Related TEAE O[?] (r38, respiratory SOC), n participants",Pooled SEQ ID NO: 1 (N = 29),0
same,"Related TEAE Pain in extremity, n participants",Pooled SEQ ID NO: 1 (N = 29),0
same,"Related TEAE Respiratory, thoracic and m[?] disorders, n participants",Pooled SEQ ID NO: 1 (N = 29),0
same,"Related TEAE T[?], n participants",Pooled SEQ ID NO: 1 (N = 29),0
same,"Related TEAE [?] headache, n participants",Pooled SEQ ID NO: 1 (N = 29),0
same,"Related TEAE, occurrences (M)",Pooled SEQ ID NO: 1 (N = 29),12
same,"TEAE A[?] (r19, skin SOC), n participants",Pooled SEQ ID NO: 1 (N = 29),0
same,"TEAE Blood and lymphatic system disorders, n participants",Pooled SEQ ID NO: 1 (N = 29),0
same,"TEAE Constipation, n participants",Pooled SEQ ID NO: 1 (N = 29),0
same,"TEAE D[?] contact, M occurrences",Pooled SEQ ID NO: 1 (N = 29),3
same,"TEAE D[?] contact, n participants",Pooled SEQ ID NO: 1 (N = 29),2
same,"TEAE Gastrointestinal disorders, M occurrences",Pooled SEQ ID NO: 1 (N = 29),3
same,"TEAE Gastrointestinal disorders, n participants",Pooled SEQ ID NO: 1 (N = 29),2
same,"TEAE General disorders and administration site conditions, M occurrences",Pooled SEQ ID NO: 1 (N = 29),8
same,"TEAE General disorders and administration site conditions, n participants",Pooled SEQ ID NO: 1 (N = 29),7
same,"TEAE Injury, [?] and procedural complications, % participants",Pooled SEQ ID NO: 1 (N = 29),48.3%
same,"TEAE Injury, [?] and procedural complications, n participants",Pooled SEQ ID NO: 1 (N = 29),14
same,"TEAE O[?] (r37, vascular SOC), M occurrences",Pooled SEQ ID NO: 1 (N = 29),2
same,"TEAE O[?] (r37, vascular SOC), n participants",Pooled SEQ ID NO: 1 (N = 29),1
same,"TEAE O[?] pain, n participants",Pooled SEQ ID NO: 1 (N = 29),0
same,"TEAE Related (to study drug), M occurrences",Pooled SEQ ID NO: 1 (N = 29),12
same,"TEAE Related (to study drug), n participants",Pooled SEQ ID NO: 1 (N = 29),2
same,"TEAE Respiratory, thoracic and [?] disorders, n participants",Pooled SEQ ID NO: 1 (N = 29),0
same,"TEAE Severity Grade 1, participants %",Pooled SEQ ID NO: 1 (N = 29),82.8%
same,"TEAE Severity Grade 1, participants n",Pooled SEQ ID NO: 1 (N = 29),24
same,"TEAE Skin reaction, M occurrences",Pooled SEQ ID NO: 1 (N = 29),3
same,"TEAE Skin reaction, n participants",Pooled SEQ ID NO: 1 (N = 29),2
same,"TEAE V[?] (r24, general SOC), M occurrences",Pooled SEQ ID NO: 1 (N = 29),4
same,"TEAE V[?] (r24, general SOC), n participants",Pooled SEQ ID NO: 1 (N = 29),3
same,"TEAE Vascular disorders, M occurrences",Pooled SEQ ID NO: 1 (N = 29),5
same,"TEAE Vascular disorders, n participants",Pooled SEQ ID NO: 1 (N = 29),3
same,"TEAE [?] (r26, general SOC), n participants",Pooled SEQ ID NO: 1 (N = 29),0
same,"TEAE [?] (r39, vascular SOC), n participants",Pooled SEQ ID NO: 1 (N = 29),0
same,"TEAE [?] (r44, nervous SOC), n participants",Pooled SEQ ID NO: 1 (N = 29),0
same,"TEAE [?] (r52, blood SOC), n participants",Pooled SEQ ID NO: 1 (N = 29),0
same,"TEAE, occurrences (M)",Pooled SEQ ID NO: 1 (N = 29),52
same,"Participants With At Least 1 TEAE, n (%)",Pooled SEQ ID NO: 1 (N = 35),31 (88.6%)
same,"Participants With At Least 1 TEAE, occurrences m",Pooled SEQ ID NO: 1 (N = 35),71 and 72
same,"Participants With At Least 1 Treatment-Related TEAE, n (%)",Pooled SEQ ID NO: 1 (N = 35),13 (37.1%)
same,"Participants With At Least 1 Treatment-Related TEAE, occurrences m",Pooled SEQ ID NO: 1 (N = 35),23
same,"TEAE by system organ class: Blood and Lymphatic System Disorders, participants n (%)",Pooled SEQ ID NO: 1 (N = 35),0
same,"TEAE by system organ class: Gastrointestinal Disorders, occurrences m",Pooled SEQ ID NO: 1 (N = 35),4
same,"TEAE by system organ class: Gastrointestinal Disorders, participants n (%)",Pooled SEQ ID NO: 1 (N = 35),3 (8.6%)
same,"TEAE by system organ class: General Disorders and Administration Site Conditions, occurrences m",Pooled SEQ ID NO: 1 (N = 35),17
same,"TEAE by system organ class: General Disorders and Administration Site Conditions, participants n (%)",Pooled SEQ ID NO: 1 (N = 35),13 (37.1%)
same,"TEAE by system organ class: Infections and Infestations, occurrences m",Pooled SEQ ID NO: 1 (N = 35),1
same,"TEAE by system organ class: Infections and Infestations, participants n (%)",Pooled SEQ ID NO: 1 (N = 35),1 (2.9%)
same,"TEAE by system organ class: Injury, Poisoning, and Procedural Complications, occurrences m",Pooled SEQ ID NO: 1 (N = 35),24
same,"TEAE by system organ class: Injury, Poisoning, and Procedural Complications, participants n (%)",Pooled SEQ ID NO: 1 (N = 35),18
same,"TEAE by system organ class: Musculoskeletal and Connective Tissue Disorders, occurrences m",Pooled SEQ ID NO: 1 (N = 35),6
same,"TEAE by system organ class: Musculoskeletal and Connective Tissue Disorders, participants n (%)",Pooled SEQ ID NO: 1 (N = 35),6 (17.1%)
same,"TEAE by system organ class: Nervous System Disorders, occurrences m",Pooled SEQ ID NO: 1 (N = 35),6
same,"TEAE by system organ class: Nervous System Disorders, participants n (%)",Pooled SEQ ID NO: 1 (N = 35),6 (17.1%)
same,"TEAE by system organ class: Respiratory, Thoracic, and Mediastinal disorders, participants n (%)",Pooled SEQ ID NO: 1 (N = 35),0
same,"TEAE by system organ class: Skin and Subcutaneous Tissue Disorders, occurrences m",Pooled SEQ ID NO: 1 (N = 35),9
same,"TEAE by system organ class: Skin and Subcutaneous Tissue Disorders, participants n (%)",Pooled SEQ ID NO: 1 (N = 35),7 (20.0%)
same,"TEAE by system organ class: Vascular Disorders, occurrences m",Pooled SEQ ID NO: 1 (N = 35),5
same,"TEAE by system organ class: Vascular Disorders, participants n (%)",Pooled SEQ ID NO: 1 (N = 35),3 (8.6%)
same,"TEAE severity Grade 1, occurrences m",Pooled SEQ ID NO: 1 (N = 35),64
same,"TEAE severity Grade 1, participants n (%)",Pooled SEQ ID NO: 1 (N = 35),30 (85.7%)
same,"TEAE severity Grade 2, occurrences m",Pooled SEQ ID NO: 1 (N = 35),8
same,"TEAE severity Grade 2, participants n (%)",Pooled SEQ ID NO: 1 (N = 35),5 (14.3%)
same,"TEAE severity Grade 3, participants n (%)",Pooled SEQ ID NO: 1 (N = 35),0
same,"TEAE severity Grade 4, participants n (%)",Pooled SEQ ID NO: 1 (N = 35),0

# From patent US20240115654A1, “INTRAVENOUS ADMINISTRATION OF ENGINEERED ANTIMICROBIAL AMPHIPHILIC PEPTIDES” (priority 2021, published 2024)
